Assay: Inhibitory effect on free radical diphenylpicrylhydrazide, UV spectrophotometry at 517 nm
Details: for Inhibition % / Absorbance at 517 nm: ethanolic solution, 20 micromoles by liter of compound, 100 micromeres by liter of radical (VIII), 30 minutes at 20° C.; for Absorbance at 517 nm: vat 1 cm, control only 1.15
Method: The anti-oxidizing potential in solution of the amide-phenol compounds (I) and (II) was evaluated by the degree of their reaction with radical free diphenyl-picrylhydrazide (VIII) following C. T. Ho, Journal of Agricultural and Food Chemistry, 1999, p.
The inhibitory effect of the free radicals claimed for the compounds (Ia) and (IIa) has been evaluated by the measure of their absorbencies in UV spectrophotometry at 517 nanometers in the presence of an excess of radical diphenylpicrylhydrazide (VIII).
Ethanolic solutions containing 20 micromoles by liter of compound to test and 100 micromeres by liter of radical (VIII) agitated for 30 minutes at 20° C. and placed in a vat 1 cm of length.

| SMILES | Inhibition % | Absorbance at 517 nm | inhibitory activity compared with TROLOX and methyl gallate (in words) (diphenylpicrylhydrazide radical test) |
| --- | --- | --- | --- |
| COC(=O)c1cc(O)c(O)c(O)c1 [Gallate of methyl (IIIa), methyl gallate] | 71% | 0.33 |  |
| CCCCCCCCCCC(CO)NC(=O)c1cc(O)c(O)c(O)c1 (stereo not shown) [Gallic amide (Ia)] | 70% | 0.35 | lower than TROLOX but comparable to that of methyl gallate |
| Cc1c(C)c2c(c(C)c1O)CCC(C)(C(=O)O)O2 (stereo not shown) [TROLOX (IVa), 6-hydroxy-2,5,7,8-tetramethyl chroman-2-carboxylic acid] | 91% | 0.10 |  |
